Source: PubChem BioAssay AID330 (DTP/NCI, 2004)
Where “and” joins values, the source holds several entries; their conditions need not be identical. Equal entries are not always repeated. Inconclusive results and toxic doses are left out.

System: P388 leukemia ip, CD2F1 mice, survival T/C
Assay: NCI In Vivo Anticancer Drug Screen. Data for tumor model P388 Leukemia (intraperitoneal) in CD2F1 (CDF1) mice
Conditions: endpoint: median survival time, higher = longer survival
Summary of the method: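 Mice carrying the transplanted tumor received test compound or vehicle. Survival was recorded in each group, and the value is the treated-group measurement divided by that of the vehicle-treated control group.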

[1] = dose: 50.0 mg/kg/injection, schedule: Q01DX005 (ip), vehicle: saline
[2] = dose: 100.0 mg/kg/injection, schedule: Q01DX005 (ip), vehicle: saline
[3] = dose: 200.0 mg/kg/injection, schedule: Q01DX005 (ip), vehicle: saline
[4] = dose: 12.5 mg/kg/injection, schedule: Q01DX009 (ip), vehicle: saline with Tween-80
[5] = dose: 25.0 mg/kg/injection, schedule: Q01DX009 (ip), vehicle: saline with Tween-80
[6] = dose: 50.0 mg/kg/injection, schedule: Q01DX009 (ip), vehicle: saline with Tween-80
[7] = dose: 100.0 mg/kg/injection, schedule: Q01DX009 (ip), vehicle: saline with Tween-80
[8] = dose: 200.0 mg/kg/injection, schedule: Q01DX009 (ip), vehicle: saline with Tween-80
[9] = dose: 50.0 mg/kg/injection, schedule: Q01DX005 (ip), vehicle: saline with Tween-80
[10] = dose: 100.0 mg/kg/injection, schedule: Q01DX005 (ip), vehicle: saline with Tween-80
[11] = dose: 200.0 mg/kg/injection, schedule: Q01DX005 (ip), vehicle: saline with Tween-80
[12] = dose: 60.0 mg/kg/injection, schedule: Q01DX005 (ip), vehicle: saline with Tween-80
[13] = dose: 120.0 mg/kg/injection, schedule: Q01DX005 (ip), vehicle: saline with Tween-80
[14] = dose: 6.25 mg/kg/injection, schedule: Q01DX009 (ip), vehicle: saline with Tween-80

For `COc1c(C)n(C)n(-c2ccccc2)c1=O`, the T/C (dose: 6.25 mg/kg/injection, schedule: Q01DX005 (ip), vehicle: saline) was 108 % of control, the T/C (dose: 12.5 mg/kg/injection, schedule: Q01DX005 (ip), vehicle: saline) was 98 % of control and the T/C (dose: 25.0 mg/kg/injection, schedule: Q01DX005 (ip), vehicle: saline) was 108 % of control. The T/C [1] was 102 % of control, the T/C [2] was 105 % of control and the T/C [3] was 102 % of control.
For `CCCC(C#N)OC(=O)c1ccccc1` (centres undefined), the T/C [4] was 104 % of control, the T/C [5] was 100 % of control and the T/C [6] was 104 % of control.
With `C1CC2OC2CC1C1CO1` (centres undefined) the T/C [7] was 104 % of control, the T/C (dose: 100.0 mg/kg/injection, schedule: Q04DX003 (ip), vehicle: saline sonified) was 100 % of control and the T/C [8] was 104 % of control. The T/C (dose: 200.0 mg/kg/injection, schedule: Q04DX003 (ip), vehicle: saline sonified) was 100 % of control and the T/C (dose: 400.0 mg/kg/injection, schedule: Q04DX003 (ip), vehicle: saline sonified) was 109 % of control.
With `CC1CCC(SC2CC(=O)CCC2=O)CC1` (centres undefined) the T/C [9] was 104 % of control and 115 % of control, the T/C [10] was 106 % of control and 115 % of control and the T/C [11] was 122 % of control.
For `COc1ccc(C(=O)Cc2cc(OC)c(OC)cc2Br)cc1OC`, the T/C (dose: 100.0 mg/kg/injection, schedule: Q01DX001 (ip), vehicle: Klucel (hydroxypropylcellulose) (HPC)) was 93 % of control, the T/C (dose: 200.0 mg/kg/injection, schedule: Q01DX001 (ip), vehicle: Klucel (hydroxypropylcellulose) (HPC)) was 101 % of control and the T/C [11] was 86 % of control. The T/C (dose: 400.0 mg/kg/injection, schedule: Q01DX001 (ip), vehicle: Klucel (hydroxypropylcellulose) (HPC)) was 99 % of control.
With `CCCCc1c(C#N)c(=O)n2c(N)c(C(=O)OCC)cnc2c1SC` the T/C (dose: 3.75 mg/kg/injection, schedule: Q01DX005 (ip), vehicle: saline with Tween-80) was 104 % of control and 108 % of control, the T/C (dose: 7.5 mg/kg/injection, schedule: Q01DX005 (ip), vehicle: saline with Tween-80) was 117 % of control and 120 % of control and the T/C (dose: 15.0 mg/kg/injection, schedule: Q01DX005 (ip), vehicle: saline with Tween-80) was 120 % of control. The T/C [12] was 98 % of control and the T/C [13] was 92 % of control.
For `NCCSCCO`, the T/C [1] was 98 % of control, the T/C [2] was 100 % of control and the T/C [3] was 99 % of control.
`COC(=O)c1cc(-c2cccc3ccccc23)[nH]c(=O)c1C#N` was tested, and the T/C [12] was 95 % of control and the T/C [13] was 100 % of control.
For `C1CN1P1(N2CC2)=NP(N2CC2)(N2CC2)=NP(N2CC2)(N2CC2)=NP(N2CC2)(N2CC2)=N1`, the T/C (dose: 5.0 mg/kg/injection, schedule: Q01DX009 (ip), vehicle: saline) was 195 % of control and the T/C (dose: 10.0 mg/kg/injection, schedule: Q01DX009 (ip), vehicle: saline) was 222 % of control.
In the case of `COc1ccc(C2CCC[C@H](CCc3ccc(O)cc3)O2)cc1` (some centres undefined), the T/C [9] is reported as 97 % of control, the T/C [10] is reported as 114 % of control and the T/C [11] is reported as 109 % of control.
For `c1ccc2c(c1)SCC1COCOC21` (centres undefined), the T/C (dose: 100.0 mg/kg/injection, schedule: Q04DX003 (ip), vehicle: saline with Tween-80) was 100 % of control, the T/C (dose: 200.0 mg/kg/injection, schedule: Q04DX003 (ip), vehicle: saline with Tween-80) was 103 % of control and the T/C (dose: 400.0 mg/kg/injection, schedule: Q04DX003 (ip), vehicle: saline with Tween-80) was 98 % of control.
With `CCC1=CCC2C(=O)C3CC(CC)=CCC3C(=O)C2C1` (centres undefined) the T/C (dose: 12.5 mg/kg/injection, schedule: Q01DX005 (ip), vehicle: Klucel (hydroxypropylcellulose) (HPC)) was 97 % of control, the T/C (dose: 25.0 mg/kg/injection, schedule: Q01DX005 (ip), vehicle: Klucel (hydroxypropylcellulose) (HPC)) was 92 % of control and the T/C (dose: 50.0 mg/kg/injection, schedule: Q01DX005 (ip), vehicle: Klucel (hydroxypropylcellulose) (HPC)) was 87 % of control and 88 % of control.
For `CN(C=O)c1ccc(Cl)cc1`, the T/C (dose: 100.0 mg/kg/injection, schedule: Q04DX002 (ip), vehicle: saline) was 100 % of control, the T/C (dose: 200.0 mg/kg/injection, schedule: Q04DX002 (ip), vehicle: saline) was 97 % of control and the T/C (dose: 400.0 mg/kg/injection, schedule: Q04DX002 (ip), vehicle: saline) was 100 % of control.
In the case of `OC(CNc1ccccc1Cl)COc1ccc(Cl)cc1Cl` (centres undefined), the T/C [6] is reported as 94 % of control, the T/C [7] is reported as 95 % of control and the T/C [8] is reported as 106 % of control.
For `CS/C(=C/c1ccc2ccccc2[n+]1C)N1CCCC1`, the T/C (dose: 0.1 mg/kg/injection, schedule: Q01DX005 (ip), vehicle: saline) was 103 % of control, the T/C (dose: 0.2 mg/kg/injection, schedule: Q01DX005 (ip), vehicle: saline) was 99 % of control and the T/C (dose: 0.4 mg/kg/injection, schedule: Q01DX005 (ip), vehicle: saline) was 100 % of control. The T/C (dose: 0.78 mg/kg/injection, schedule: Q01DX005 (ip), vehicle: saline) was 116 % of control and the T/C (dose: 1.56 mg/kg/injection, schedule: Q01DX005 (ip), vehicle: saline) was 111 % of control.
For `O=C1c2ccccc2CC12OC2c1ccncc1` (centres undefined), the T/C (dose: 100.0 mg/kg/injection, schedule: Q04DX002 (ip), vehicle: Klucel (hydroxypropylcellulose) (HPC)) was 104 % of control, the T/C (dose: 200.0 mg/kg/injection, schedule: Q04DX002 (ip), vehicle: Klucel (hydroxypropylcellulose) (HPC)) was 100 % of control and the T/C (dose: 400.0 mg/kg/injection, schedule: Q04DX002 (ip), vehicle: Klucel (hydroxypropylcellulose) (HPC)) was 106 % of control.
In the case of `O=c1[nH]cnc2ncccc12`, the T/C (dose: 12.5 mg/kg/injection, schedule: Q01DX009 (ip), vehicle: Klucel (hydroxypropylcellulose) (HPC)) is reported as 104 % of control, the T/C (dose: 25.0 mg/kg/injection, schedule: Q01DX009 (ip), vehicle: Klucel (hydroxypropylcellulose) (HPC)) is reported as 110 % of control and the T/C (dose: 50.0 mg/kg/injection, schedule: Q01DX009 (ip), vehicle: Klucel (hydroxypropylcellulose) (HPC)) is reported as 112 % of control. The T/C (dose: 100.0 mg/kg/injection, schedule: Q01DX009 (ip), vehicle: Klucel (hydroxypropylcellulose) (HPC)) was 87 % of control.
For `OCc1ccccc1Cn1ccnc1`, the T/C [12] was 96 % of control, the T/C [13] was 93 % of control and the T/C (dose: 240.0 mg/kg/injection, schedule: Q01DX005 (ip), vehicle: saline with Tween-80) was 96 % of control.
In the case of `CCCCCCCCCCCCCCC(Cl)C/[N+]([O-])=[N+](/[O-])CC(Cl)CCCCCCCCCCCCCC` (centres undefined), the T/C (dose: 100.0 mg/kg/injection, schedule: Q04DX003 (ip), vehicle: saline) is reported as 92 % of control, the T/C (dose: 200.0 mg/kg/injection, schedule: Q04DX003 (ip), vehicle: saline) is reported as 92 % of control and the T/C (dose: 400.0 mg/kg/injection, schedule: Q04DX003 (ip), vehicle: saline) is reported as 92 % of control.
With `COc1ccc2c(c1)OCCCO/N=C(\c1ccccc1)c1ccc(OC)cc1OCCCO/N=C/2c1ccccc1` (tested in a mixture with another compound) the T/C [9] was 103 % of control, the T/C [10] was 103 % of control and the T/C [11] was 98 % of control.
For `O=[N+]([O-])c1nc2ccccc2[nH]1`, the T/C [14] was 101 % of control, the T/C [4] was 101 % of control and the T/C [5] was 111 % of control. For the same compound, the T/C [6] was 108 % of control.
In the case of `Cc1cc(N)c(C)c(Br)c1C`, the T/C [6] is reported as 106 % of control, the T/C [7] is reported as 99 % of control and the T/C [8] is reported as 106 % of control.
With `Cc1cc2nc(C=C(C(F)(F)F)C(F)(F)F)oc2cc1C` the T/C (dose: 1.56 mg/kg/injection, schedule: Q01DX009 (ip), vehicle: saline with Tween-80) was 98 % of control, the T/C (dose: 3.13 mg/kg/injection, schedule: Q01DX009 (ip), vehicle: saline with Tween-80) was 98 % of control and the T/C [14] was 95 % of control. The T/C [4] was 93 % of control.
For `c1ccc2sc(SSc3nc4ccccc4s3)nc2c1`, the T/C [6] was 110 % of control, the T/C [7] was 108 % of control and the T/C [8] was 104 % of control. The T/C (dose: 400.0 mg/kg/injection, schedule: Q01DX009 (ip), vehicle: saline with Tween-80) was 109 % of control.
